One data set has as its system cytochrome P450 enzymes. Put plainly: 7-ethoxycoumarin O-deethylation in human liver samples. To be noted: liver samples used in the genotype study. Format: in vitro ADME. The text has this: To evaluate the functional viability of microsomal drug-metabolizing enzymes in the liver samples used in this study, the livers were screened for 7-ethoxycoumarin O-deethylation, as 7-ethoxycoumarin is oxidized to umbelliferone by multiple cytochrome P450 enzymes. The method used is described by Evans & Relling, J. Chromatogr., 578:141-145 (1992).

Data set [1] deals with UGT. The data set is described as follows: AZT glucuronidation assay in human liver microsomes (control). Type of data set: in vitro ADME. To be noted: microsomes from normal humans and CN-1 patients; AZT 5 mM, 1 hour. The protocol:
(§1) To ensure the viability and functional enzymatic activity of the microsomal preparations, the UGT activity toward another substrate, AZT (3′-azido-3′-deoxythymidine) was investigated as a control. Liver microsomes from normal humans, CN-1 patients, normal rats, and Gunn rats were prepared as described above. Investigations were performed in pooled microsomes from normal rats, normal humans and Gunn rats, while microsomes from CN-1 patients were used individually.
(§2) Microsomes were preincubated with oleolyl lysophosphatidylcholine (OLPC) (0.8% wt/wt. OLPC/microsomal protein) at 4° C. for 20 minutes. The final reaction mixture contained 1 mg/ml preincubated microsomes, AZT (5 mM), MgCl2 (10 mM), 0.2 M Tris-HCl buffer (pH 7.3), and UDPGA (10 mM) in a final volume of 300 μl. After an incubation period of 1 hour at 37° C., the reaction was stopped with the addition of 30 μl of HCl. Proteins were removed after centrifugation at 10,500 g for 5 minutes and 30 μl aliquots of the supernatant were subjected to HPLC analysis and the metabolites were detected in an ultraviolet detector at a wavelength of 265 nm. The mobile phase consisted of a 15:85 mixture of acetonitrile/ammonium phosphate buffer (0.1% vol/vol phosphoric acid, adjusted to pH 2.7 with ammonium hydroxide) used at a flow rate of 1 ml/min. […]

The test system of data set [2] is UGT. The data set is described as follows: AZT glucuronidation assay in rat liver microsomes (control). To be noted: microsomes from normal rats and Gunn rats; AZT 5 mM, 1 hour. Type of data set: in vitro ADME. The protocol: as §1, §2
The test system of data set [3] is UGT. Put plainly: PNP glucuronidation in human liver microsomes. Type of data set: in vitro ADME. To be noted: PNP 360 μM, 10 minutes. As for the experimental part: The formation of glucuronidated PNP was quantified by the following method. […] The reaction was stopped by the addition of 2.8 ml of 0.2 M glycine-NaOH buffer (pH 10.4). Samples were centrifuged at 2,500 rpm for 30 minutes, and UGT activity in the supernatant was analyzed colorimetrically in a spectrophotometer by measuring the disappearance of the substrate at a wavelength of 400 nm.

Data set [4] has as its system UGT enzymes. Put plainly: SN-38 glucuronidation assay in human liver microsomes. The conditions noted are these: for mean SN-38 glucuronidation rate (peak area of SN-38 glucuronide ÷ peak area CPT) {SE}: African Americans liver microsomes. Format: in vitro ADME. As for the experimental part:
(§3) To investigate which UGT enzymes are responsible for SN-38 glucuronidation, the in vitro metabolism of SN-38 was measured using normal human and rat liver microsomes, as well as microsomes from Gunn rats, Gunn, C. H., J. Hered., 29:137-139 (1938), and patients with Crigler-Najjar type I (CN-1) syndrome. Liver microsomes were prepared from normal humans, CN-1 patients, normal rats, and Gunn rats and assayed for SN-38 glucuronidation. Microsomes from human liver samples medically unsuitable for liver transplantation were acquired under the auspices of the Washington Regional Transplant Consortium. In addition, microsomes were prepared by differential centrifugation methods. Purba, H. S., et al., Br. J. Clin. Pharmaocol. 23:447-453, using human liver samples obtained with the approval of the Institutional Review Boards of institutions involved through the Liver Tissue Procurement and Distribution System. Investigations were performed with pooled microsomes from normal rats, normal humans and Gunn rats, while microsomes from CN-1 patients were used individually.
Microsomes (1 mg/ml) were incubated with SN-38 (5 μM), MgCl2 (10 mM), and UDPGA (5 mM) in a 0.1 M Tris-HCl buffer medium (pH 7.4) for 30 minutes at 37° C., in a final volume of 200 μl. After stopping the reaction with 400 μl methanol, the incubation mix was centrifuged at 2,500 rpm for 30 minutes at 4° C. The supernatant was evaporated to dryness under nitrogen and in preparation of analysis by high pressure liquid chromatography (HPLC), the supernatant was reconstituted with 250 μl of a mobile phase consisting of 35% acetonitrile and 65% 0.1 M KH2PO4 containing 3 mM sodium heptane sulphonate (pH 4.0), used at a flow rate of 0.8 ml/min. A C18μ Bondapak column (10 μm, 3.9×300 mm) was used with fluorescence detection at the following wavelengths: 355 nm and 515 nm. 100 μl aliquots of the reconstituted supernatant were injected into an HPLC assay system. CPT was used as the internal standard. […] Retention times were approximately 3.5, 9, and 10 minutes, respectively. The peaks for each of these compounds were confirmed using standards of SN-38G, SN-38, and CPT.
Microsomes (1 mg/ml) were obtained from human liver tissue samples and were incubated with SN-38 (5 μM), MgCl2 (10 mM), and UDPGA (5 mM) in a 0.1 M Tris-HCl buffer medium (pH 7.4) for 30 minutes at 37° C., in a final volume of 200 μl. SN-38, SN-38G and the internal standard, CPT, were separated using high performance liquid chromatography (HPLC) coupled to fluorescence detection (ex=355 nm and em=515 nm). SN-38 reaction rates were linear for incubation times up to at least 1.5 hours and for final protein concentrations of up to 2 mg/ml. The results of this analysis, shown in Table 2 below, also include the liver samples of Caucasian origin from the first study. […]

In data set [5] the test system is UGT enzymes. The data set is described as follows: SN-38 glucuronidation assay in Gunn rat liver microsomes. Type of data set: in vitro ADME. The conditions noted are these: liver microsomes from Gunn rats. As for the experimental part:
as §3
Microsomes (1 mg/ml) were incubated with SN-38 (5 μM), MgCl2 (10 mM), and UDPGA (5 mM) in a 0.1 M Tris-HCl buffer medium (pH 7.4) for 30 minutes at 37° C., in a final volume of 200 μl. […] A C18μ Bondapak column (10 μm, 3.9×300 mm) was used with fluorescence detection at the following wavelengths: 355 nm and 515 nm. […]

For the next data set, the target named is T1, human UGT1A1 (Homo sapiens, UniProt P22309).
T1 sequence (P22309 26-533): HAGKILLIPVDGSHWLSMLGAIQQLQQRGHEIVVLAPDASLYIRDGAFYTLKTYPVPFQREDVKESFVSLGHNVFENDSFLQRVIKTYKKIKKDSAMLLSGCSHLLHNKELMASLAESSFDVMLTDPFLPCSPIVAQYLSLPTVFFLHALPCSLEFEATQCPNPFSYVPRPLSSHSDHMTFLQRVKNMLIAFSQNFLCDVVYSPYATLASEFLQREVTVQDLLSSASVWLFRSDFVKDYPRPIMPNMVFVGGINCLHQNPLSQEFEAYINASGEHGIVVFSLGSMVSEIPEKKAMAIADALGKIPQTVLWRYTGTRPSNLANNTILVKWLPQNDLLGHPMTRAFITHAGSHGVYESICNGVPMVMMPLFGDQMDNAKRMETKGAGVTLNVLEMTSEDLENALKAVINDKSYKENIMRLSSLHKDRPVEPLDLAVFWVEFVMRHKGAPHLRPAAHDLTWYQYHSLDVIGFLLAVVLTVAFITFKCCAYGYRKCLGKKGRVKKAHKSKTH
The data set is described as follows: SN-38 glucuronidation by cDNA-expressed UGT1A1 in HK293 cells. The conditions noted are these: HK293 cells expressing UGT1A1; increased with increasing protein concentrations. From the text: (§4) Cell lysates from HK293 cells expressing UGT1A1 (♦), UGT1A4 (□) and UGT2B7 enzymes (Δ), and membrane preparations of HK293 cells expressing UGT1A1 enzyme (●), were screened for SN-38 glucuronidating activity. HK293 cells (⋄) were used as a control. Each data point represents the mean of three separate determinations.
(§5) To determine which particular isozyme of UGT1 glucuronidates SN-38, HK293 cells transfected with and expressing cDNA encoding selected UGT1 isozymes and a member of the UGT2 family (UGT2B7) were screened for SN-38 glucuronidating activity. Culture media and conditions for stable expression of human UGT1A1, UGT1A4, and UGT2B7 have been described previously. Coffman, et al., Mol. Pharmacol., 47:1101-1105 (1995), Green, et al., Drug Metab. Dispos., 23:299-302 (1995); Coffman, et al., Drug Metab. Dispos., 25:1-4 (1997) all are incorporated herein by reference. Briefly, the XbaI/XhoI and BamHI-XhoI fragments of human UGT1A1, UGT1A4, and UGT2B7 were subcloned into the respective corresponding sites of the mammalian expression vectors pcDNA3, pREP9, and pcDNA3.1. HK293 cells were transfected with the vector-UGT isozyme using the calcium phosphate transfection method. Chen, et al., Biotechniques, 6:632-638 (1988). The cells were then assayed for glucuronidation activity as described above.

Another data set deals with T2, human UGT1A4 (Homo sapiens, UniProt P22310).
T2 sequence (P22310 29-534): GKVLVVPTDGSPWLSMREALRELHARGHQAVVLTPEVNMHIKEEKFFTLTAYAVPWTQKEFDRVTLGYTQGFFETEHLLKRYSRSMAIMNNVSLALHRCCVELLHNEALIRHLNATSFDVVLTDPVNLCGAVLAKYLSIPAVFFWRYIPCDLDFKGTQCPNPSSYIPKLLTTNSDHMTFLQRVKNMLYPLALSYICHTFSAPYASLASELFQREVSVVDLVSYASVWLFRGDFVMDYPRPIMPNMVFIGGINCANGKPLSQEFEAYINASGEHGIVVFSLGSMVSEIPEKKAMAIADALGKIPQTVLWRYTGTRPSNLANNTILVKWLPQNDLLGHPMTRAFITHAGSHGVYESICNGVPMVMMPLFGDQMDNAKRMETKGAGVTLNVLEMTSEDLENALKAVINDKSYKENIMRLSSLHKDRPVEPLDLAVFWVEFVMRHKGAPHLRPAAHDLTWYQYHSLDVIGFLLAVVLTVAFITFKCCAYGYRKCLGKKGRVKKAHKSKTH
Put plainly: SN-38 glucuronidation by cDNA-expressed UGT1A4 in HK293 cells. The conditions noted are these: HK293 cells expressing UGT1A4; up to a protein concentration of 2 mg/ml.
From the text: as §4, §5

Another data set deals with T3, human UGT2B7 (Homo sapiens, UniProt P16662).
T3 sequence (P16662 24-529): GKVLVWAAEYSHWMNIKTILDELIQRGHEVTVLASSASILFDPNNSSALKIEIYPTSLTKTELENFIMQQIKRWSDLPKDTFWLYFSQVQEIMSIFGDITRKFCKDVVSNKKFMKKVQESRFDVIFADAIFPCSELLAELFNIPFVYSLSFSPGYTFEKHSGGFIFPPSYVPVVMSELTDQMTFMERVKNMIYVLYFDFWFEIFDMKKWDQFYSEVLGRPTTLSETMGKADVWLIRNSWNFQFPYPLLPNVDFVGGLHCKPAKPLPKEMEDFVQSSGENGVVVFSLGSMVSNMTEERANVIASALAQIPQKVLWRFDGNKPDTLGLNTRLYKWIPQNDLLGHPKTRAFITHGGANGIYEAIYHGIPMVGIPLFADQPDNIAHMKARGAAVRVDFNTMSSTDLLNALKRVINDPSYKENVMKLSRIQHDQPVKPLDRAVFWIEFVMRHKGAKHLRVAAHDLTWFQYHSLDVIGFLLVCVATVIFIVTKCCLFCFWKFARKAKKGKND
Put plainly: SN-38 glucuronidation by cDNA-expressed UGT2B7 in HK293 cells. To be noted: HK293 cells expressing UGT2B7; up to a protein concentration of 2 mg/ml.
From the text: as §4, §5

The conditions of data set [6]: relative to Irinotecan; cited from earlier work.

Consider 4 molecules from US6472157B2, “Methods for detection of promoter polymorphism in a UGT gene promoter” (Arch Development Corporation, priority 1999, dated 2002).

“Also recorded” adds a separate entry of the source.

For `CCOc1ccc2ccc(=O)oc2c1` [7-ethoxycoumarin], the “rates of umbelliferone formation (7-ethoxycoumarin O-deethylation)” value in the data set with cytochrome P450 enzymes is reported as “within the expected range”.

`Cc1cn([C@H]2C[C@H](N=[N+]=[N-])[C@@H](CO)O2)c(=O)[nH]c1=O` [AZT, 3′-azido-3′-deoxythymidine]: the “in vitro formation of G-AZT” value with UGT [1] and in the data set on UGT [2] was “Intact in vitro formation of G-AZT” each time.

For the molecule `O=[N+]([O-])c1ccc(O)cc1` [PNP], in the data set on UGT [3], the “rates of PNP glucuronidation (mean±SEM)” value is reported as 20.39±2.4 nmol PNP glucuronidated/min/mg protein and the “rates of PNP glucuronidation (range)” value was 16.48-23.82 nmol PNP glucuronidated/min/mg protein.

`CCc1c2c(nc3ccc(O)cc13)-c1cc3c(c(=O)n1C2)COC(=O)[C@]3(O)CC` [SN-38, 7-ethyl-10-hydroxycamptothecin]: in the data set on UGT enzymes [4] (25 normal human liver microsomes, SN-38 5 μM, 30 minutes, 37° C.), the “rates of SN-38G formation among individuals (range)” value is listed as 0.5-26 pmol of SN-38G formed/min/mg microsomal protein. Moreover, the “mean SN-38 glucuronidation rate (peak area of SN-38 glucuronide ÷ peak area CPT) {SE}” value in the data set with UGT enzymes [4] (UGT1A1 promoter genotype 5/7) was found to be 0.39; in the data set with UGT enzymes [4] (UGT1A1 promoter genotype 6/8) it was 0.12. The “in vitro SN-38 glucuronidating activity” value in the data set with UGT enzymes [4] (liver microsomes from CN-1 patients) and in the data set with UGT enzymes [5] was “no in vitro glucuronidation; also recorded: lack SN-38 glucuronidating activity” throughout. In addition, at human UGT1A1, the SN-38G formation result was “measurable SN-38G formation”. Moreover, the SN-38 glucuronidating activity entry on human UGT1A4 and on human UGT2B7 was “lack of SN-38 glucuronidating activity” each time. Moreover, the “higher antitumor activity than Irinotecan” value in data set [6] is listed as 100-1,000 fold.
